Laboratory results from publication PMC9321810, “Antiviral Cyclopropane Acids from Deep-Sea-Derived Fungus Aspergillus sydowii” (Marine Drugs, 2022).
Read-outs that look alike come from different tables or passages of the source.

How the values were obtained:
[1] = test system: influenza virus A/WSN/33 (H1N1); test: cytopathic effect (CPE) reduction assay, anti-influenza virus; type: cell-based, influenza A/WSN/33 (H1N1)
in vitro = conditions: dog
[2] = H1N1|WSN, MDCK, 40 h, read-out: IC50, inhibitory activity against influenza virus A/WSN/33 (H1N1), infected MDCK cells, MOI = 0.1, 40 h incubation, CellTiter-Glo readout

| SMILES | IC50 [1, 2] [µM] | CC50 at 40 h (in vitro) [µM] | IC50 ([1]; read-out: IC50, inhibitory activity against influenza virus A/WSN/33 (H1N1), infected MDCK cells, MOI = 0.1, 40 h incubation, CellTiter-Glo readout) [µM] |
| --- | --- | --- | --- |
| COC(=O)C(O)CC(=O)C1(C)C(C)C1CCC(C)=O (centres unmarked) [Compound 1, sydocyclopropane A] | 26.7 ± 0.9 | > 100 | – |
| CC(=O)C1(C)C(C)C1CC(=O)O (centres unmarked) [Compound 2, Sydocyclopropane B] | 29.5 ± 1.4 | > 100 | – |
| CC(=O)CCC1C(C)C1(C)C(=O)O (centres unmarked) [Compound 3, sydocyclopropane C] | 77.2 ± 0.5 | > 100 | – |
| CC(=O)CCC1C(C)C1(C)C(=O)O (centres unmarked) [Compound 4, sydocyclopropane D] | – | – | 66.4 ± 1.7 |
| CC(=O)C=CC1C(C)C1(C)C(C)=O (centres unmarked) [Compound 5, hamavellone B] | 35.8 ± 3.2 | > 100 | – |
| CCOC(=O)C1=C[C@@H](OC(CC)CC)[C@H](NC(C)=O)[C@@H](N)C1 [OSV, oseltamivir, reference compound] | 18.1 ± 1.2 | > 100 | – |
